Experiments:
Assay in all cases: KINOMEscan
Assay type in all cases: binding
Details in all cases: read-out: % control activity remaining
DCAMKL1 = biological target: T1, DCAMKL1 (Homo sapiens, UniProt O15075)
T1 construct: purchased Eurofins DiscoverX KINOMEscan
T1 sequence (O15075 1-740): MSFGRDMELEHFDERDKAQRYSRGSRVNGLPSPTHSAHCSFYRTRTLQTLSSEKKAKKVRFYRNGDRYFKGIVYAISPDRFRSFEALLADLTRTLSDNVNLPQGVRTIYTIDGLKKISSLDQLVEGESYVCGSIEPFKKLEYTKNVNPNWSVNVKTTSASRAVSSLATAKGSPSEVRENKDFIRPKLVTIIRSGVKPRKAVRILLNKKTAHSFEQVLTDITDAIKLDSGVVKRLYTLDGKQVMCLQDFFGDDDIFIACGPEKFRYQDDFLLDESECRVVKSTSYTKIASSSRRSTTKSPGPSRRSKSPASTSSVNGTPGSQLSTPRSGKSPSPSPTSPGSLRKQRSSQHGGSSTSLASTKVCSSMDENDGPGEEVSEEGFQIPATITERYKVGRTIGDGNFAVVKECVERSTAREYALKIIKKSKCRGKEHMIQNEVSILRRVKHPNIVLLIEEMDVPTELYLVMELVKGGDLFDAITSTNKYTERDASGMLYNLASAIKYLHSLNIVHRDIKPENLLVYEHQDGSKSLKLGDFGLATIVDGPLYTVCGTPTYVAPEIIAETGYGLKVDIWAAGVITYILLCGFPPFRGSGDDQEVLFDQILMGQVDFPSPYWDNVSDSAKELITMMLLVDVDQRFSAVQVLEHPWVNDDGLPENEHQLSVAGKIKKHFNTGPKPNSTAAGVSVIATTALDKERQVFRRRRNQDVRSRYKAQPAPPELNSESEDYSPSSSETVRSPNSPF

DAPK1 = biological target: T2, DAPK1 (Homo sapiens, UniProt P53355)
T2 construct: purchased Eurofins DiscoverX KINOMEscan
T2 sequence (P53355 whole entry): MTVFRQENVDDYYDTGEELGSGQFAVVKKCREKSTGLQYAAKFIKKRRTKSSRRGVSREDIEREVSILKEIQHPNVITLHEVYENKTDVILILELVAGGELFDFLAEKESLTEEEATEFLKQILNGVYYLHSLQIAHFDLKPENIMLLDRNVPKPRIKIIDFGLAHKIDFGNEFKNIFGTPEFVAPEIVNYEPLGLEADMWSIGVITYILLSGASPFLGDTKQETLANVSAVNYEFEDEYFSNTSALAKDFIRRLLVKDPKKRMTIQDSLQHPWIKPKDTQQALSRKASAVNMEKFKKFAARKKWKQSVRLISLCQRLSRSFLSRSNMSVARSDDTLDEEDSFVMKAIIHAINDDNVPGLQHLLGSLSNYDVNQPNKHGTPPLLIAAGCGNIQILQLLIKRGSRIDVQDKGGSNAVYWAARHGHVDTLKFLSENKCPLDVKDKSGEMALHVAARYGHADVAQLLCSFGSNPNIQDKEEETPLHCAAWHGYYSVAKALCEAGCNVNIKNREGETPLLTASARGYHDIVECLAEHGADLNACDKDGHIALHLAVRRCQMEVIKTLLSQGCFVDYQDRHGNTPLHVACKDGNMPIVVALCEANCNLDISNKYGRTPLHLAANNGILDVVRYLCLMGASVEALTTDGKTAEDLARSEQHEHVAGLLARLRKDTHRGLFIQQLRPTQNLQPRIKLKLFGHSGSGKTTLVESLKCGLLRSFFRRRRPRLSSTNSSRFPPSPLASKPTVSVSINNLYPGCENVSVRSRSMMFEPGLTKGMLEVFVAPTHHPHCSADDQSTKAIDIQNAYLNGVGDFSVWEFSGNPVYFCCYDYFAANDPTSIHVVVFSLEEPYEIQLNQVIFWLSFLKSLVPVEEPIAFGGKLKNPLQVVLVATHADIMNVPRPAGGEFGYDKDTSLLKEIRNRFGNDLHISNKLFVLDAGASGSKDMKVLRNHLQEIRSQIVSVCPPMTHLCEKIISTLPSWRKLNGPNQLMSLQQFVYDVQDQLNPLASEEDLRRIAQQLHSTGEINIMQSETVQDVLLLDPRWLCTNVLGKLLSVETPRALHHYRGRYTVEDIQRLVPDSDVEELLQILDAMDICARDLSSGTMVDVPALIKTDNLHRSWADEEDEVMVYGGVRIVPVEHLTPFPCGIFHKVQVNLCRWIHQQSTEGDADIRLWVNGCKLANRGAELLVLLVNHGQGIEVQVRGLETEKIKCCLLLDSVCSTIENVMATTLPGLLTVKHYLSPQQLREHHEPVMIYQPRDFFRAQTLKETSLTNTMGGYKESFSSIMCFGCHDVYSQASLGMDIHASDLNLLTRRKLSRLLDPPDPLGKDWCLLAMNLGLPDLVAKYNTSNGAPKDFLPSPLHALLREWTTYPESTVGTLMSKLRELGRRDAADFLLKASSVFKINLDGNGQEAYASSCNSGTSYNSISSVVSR

PKMYT1 = biological target: T3, PKMYT1 (Homo sapiens, UniProt Q99640)
T3 construct: purchased Eurofins DiscoverX KINOMEscan
T3 sequence (Q99640 1-499): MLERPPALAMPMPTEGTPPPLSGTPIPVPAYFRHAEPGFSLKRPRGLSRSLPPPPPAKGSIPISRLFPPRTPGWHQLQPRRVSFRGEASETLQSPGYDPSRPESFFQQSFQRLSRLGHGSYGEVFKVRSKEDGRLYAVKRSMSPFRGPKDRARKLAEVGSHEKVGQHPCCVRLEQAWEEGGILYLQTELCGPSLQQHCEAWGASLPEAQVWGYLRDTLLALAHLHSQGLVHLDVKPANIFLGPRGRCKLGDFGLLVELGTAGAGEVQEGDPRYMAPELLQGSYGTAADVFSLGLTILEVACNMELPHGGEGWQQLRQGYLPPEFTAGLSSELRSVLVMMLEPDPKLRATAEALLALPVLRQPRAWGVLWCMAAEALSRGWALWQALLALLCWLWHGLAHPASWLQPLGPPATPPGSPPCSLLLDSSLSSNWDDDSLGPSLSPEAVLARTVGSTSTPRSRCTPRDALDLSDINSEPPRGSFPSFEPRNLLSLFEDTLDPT

LTK = biological target: T4, LTK (Homo sapiens, UniProt P29376)
T4 construct: purchased Eurofins DiscoverX KINOMEscan
T4 sequence (P29376 17-864): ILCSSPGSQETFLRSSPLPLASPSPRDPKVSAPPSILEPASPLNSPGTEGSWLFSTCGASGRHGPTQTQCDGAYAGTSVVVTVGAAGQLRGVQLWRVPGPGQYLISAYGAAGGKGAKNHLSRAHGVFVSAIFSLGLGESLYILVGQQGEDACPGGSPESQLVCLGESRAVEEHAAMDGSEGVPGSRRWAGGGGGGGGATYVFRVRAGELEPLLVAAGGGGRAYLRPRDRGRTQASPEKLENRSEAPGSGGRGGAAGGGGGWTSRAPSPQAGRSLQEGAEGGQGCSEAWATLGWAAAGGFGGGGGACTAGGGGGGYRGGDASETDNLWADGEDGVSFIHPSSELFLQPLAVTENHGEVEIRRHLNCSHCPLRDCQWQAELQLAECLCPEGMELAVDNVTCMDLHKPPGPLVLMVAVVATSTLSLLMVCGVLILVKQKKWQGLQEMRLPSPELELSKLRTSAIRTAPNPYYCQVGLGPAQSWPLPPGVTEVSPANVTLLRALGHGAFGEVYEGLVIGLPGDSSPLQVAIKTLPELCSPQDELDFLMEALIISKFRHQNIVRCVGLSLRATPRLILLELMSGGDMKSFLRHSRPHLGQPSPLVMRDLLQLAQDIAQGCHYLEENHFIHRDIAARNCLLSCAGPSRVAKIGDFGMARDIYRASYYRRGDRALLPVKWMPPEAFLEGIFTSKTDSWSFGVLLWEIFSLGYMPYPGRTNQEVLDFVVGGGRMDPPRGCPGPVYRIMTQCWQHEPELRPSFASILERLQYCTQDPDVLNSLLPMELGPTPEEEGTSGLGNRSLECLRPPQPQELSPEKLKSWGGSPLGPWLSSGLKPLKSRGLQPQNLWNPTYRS

STK39 = biological target: T5, STK39 (Homo sapiens, UniProt Q9UEW8)
T5 construct: purchased Eurofins DiscoverX KINOMEscan

MARK3 = biological target: T6, MARK3 (Homo sapiens, UniProt P27448)
T6 construct: purchased Eurofins DiscoverX KINOMEscan

LRRK2 = biological target: T7, LRRK2 (Homo sapiens, UniProt Q5S007)
T7 construct: purchased Eurofins DiscoverX KINOMEscan

KIT(V559D,V654A) = biological target: T8, KIT(V559D,V654A) (Homo sapiens, UniProt P10721, V559D/V654A)
T8 construct: purchased Eurofins DiscoverX KINOMEscan

PIK3CG = biological target: T9, PIK3CG (Homo sapiens, UniProt P48736)
T9 construct: purchased Eurofins DiscoverX KINOMEscan
T9 sequence (P48736 whole entry): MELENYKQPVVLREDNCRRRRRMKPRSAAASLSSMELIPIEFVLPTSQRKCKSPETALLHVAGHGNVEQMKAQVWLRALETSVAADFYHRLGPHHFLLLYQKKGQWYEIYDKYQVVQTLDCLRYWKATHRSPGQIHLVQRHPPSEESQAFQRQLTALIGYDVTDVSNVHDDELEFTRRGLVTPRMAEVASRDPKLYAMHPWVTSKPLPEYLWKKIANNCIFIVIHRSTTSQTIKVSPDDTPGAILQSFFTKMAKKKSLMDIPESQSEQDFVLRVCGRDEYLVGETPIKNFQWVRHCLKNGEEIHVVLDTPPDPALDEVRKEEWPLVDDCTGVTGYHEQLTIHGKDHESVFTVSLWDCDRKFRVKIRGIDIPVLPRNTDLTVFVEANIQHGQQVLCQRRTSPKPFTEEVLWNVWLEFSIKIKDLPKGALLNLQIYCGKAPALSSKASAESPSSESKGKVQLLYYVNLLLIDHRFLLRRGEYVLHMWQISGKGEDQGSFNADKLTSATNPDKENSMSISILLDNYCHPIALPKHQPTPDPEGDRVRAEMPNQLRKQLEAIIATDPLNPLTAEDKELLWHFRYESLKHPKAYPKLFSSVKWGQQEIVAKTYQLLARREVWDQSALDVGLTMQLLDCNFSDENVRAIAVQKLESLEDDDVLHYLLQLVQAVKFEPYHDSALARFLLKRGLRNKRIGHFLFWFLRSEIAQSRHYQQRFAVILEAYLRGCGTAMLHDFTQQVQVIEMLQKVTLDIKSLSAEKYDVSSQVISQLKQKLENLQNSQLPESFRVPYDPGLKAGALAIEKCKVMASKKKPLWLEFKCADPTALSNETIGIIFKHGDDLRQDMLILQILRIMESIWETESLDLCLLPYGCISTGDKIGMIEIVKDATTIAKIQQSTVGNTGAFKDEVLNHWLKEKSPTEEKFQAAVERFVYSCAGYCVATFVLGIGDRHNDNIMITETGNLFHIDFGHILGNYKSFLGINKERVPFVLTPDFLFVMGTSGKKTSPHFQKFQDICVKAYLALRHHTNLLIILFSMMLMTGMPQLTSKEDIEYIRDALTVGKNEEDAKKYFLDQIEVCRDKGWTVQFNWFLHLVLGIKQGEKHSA

PRKCH = biological target: T10, PRKCH (Homo sapiens, UniProt P24723)
T10 construct: purchased Eurofins DiscoverX KINOMEscan
T10 sequence (P24723 whole entry): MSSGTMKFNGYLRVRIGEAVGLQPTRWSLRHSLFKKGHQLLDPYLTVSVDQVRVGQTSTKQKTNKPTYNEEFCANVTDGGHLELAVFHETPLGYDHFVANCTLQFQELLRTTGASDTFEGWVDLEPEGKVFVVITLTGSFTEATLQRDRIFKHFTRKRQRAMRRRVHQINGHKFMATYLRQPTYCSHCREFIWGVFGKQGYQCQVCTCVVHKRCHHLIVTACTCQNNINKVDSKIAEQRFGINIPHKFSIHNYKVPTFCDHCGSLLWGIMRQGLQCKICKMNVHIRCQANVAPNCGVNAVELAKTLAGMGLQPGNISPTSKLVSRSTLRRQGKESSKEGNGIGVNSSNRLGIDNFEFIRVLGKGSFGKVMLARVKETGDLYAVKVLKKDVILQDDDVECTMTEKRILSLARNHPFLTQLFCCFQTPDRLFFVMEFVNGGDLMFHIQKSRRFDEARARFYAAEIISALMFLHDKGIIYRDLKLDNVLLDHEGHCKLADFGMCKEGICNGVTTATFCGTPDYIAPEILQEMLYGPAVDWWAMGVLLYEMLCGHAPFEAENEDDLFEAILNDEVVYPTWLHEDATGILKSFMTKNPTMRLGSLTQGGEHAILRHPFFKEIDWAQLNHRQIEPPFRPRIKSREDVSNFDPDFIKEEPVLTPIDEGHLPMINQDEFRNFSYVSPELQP

PDGFRA = biological target: T11, PDGFRA (Homo sapiens, UniProt P16234)
T11 construct: purchased Eurofins DiscoverX KINOMEscan
T11 sequence (P16234 24-1089): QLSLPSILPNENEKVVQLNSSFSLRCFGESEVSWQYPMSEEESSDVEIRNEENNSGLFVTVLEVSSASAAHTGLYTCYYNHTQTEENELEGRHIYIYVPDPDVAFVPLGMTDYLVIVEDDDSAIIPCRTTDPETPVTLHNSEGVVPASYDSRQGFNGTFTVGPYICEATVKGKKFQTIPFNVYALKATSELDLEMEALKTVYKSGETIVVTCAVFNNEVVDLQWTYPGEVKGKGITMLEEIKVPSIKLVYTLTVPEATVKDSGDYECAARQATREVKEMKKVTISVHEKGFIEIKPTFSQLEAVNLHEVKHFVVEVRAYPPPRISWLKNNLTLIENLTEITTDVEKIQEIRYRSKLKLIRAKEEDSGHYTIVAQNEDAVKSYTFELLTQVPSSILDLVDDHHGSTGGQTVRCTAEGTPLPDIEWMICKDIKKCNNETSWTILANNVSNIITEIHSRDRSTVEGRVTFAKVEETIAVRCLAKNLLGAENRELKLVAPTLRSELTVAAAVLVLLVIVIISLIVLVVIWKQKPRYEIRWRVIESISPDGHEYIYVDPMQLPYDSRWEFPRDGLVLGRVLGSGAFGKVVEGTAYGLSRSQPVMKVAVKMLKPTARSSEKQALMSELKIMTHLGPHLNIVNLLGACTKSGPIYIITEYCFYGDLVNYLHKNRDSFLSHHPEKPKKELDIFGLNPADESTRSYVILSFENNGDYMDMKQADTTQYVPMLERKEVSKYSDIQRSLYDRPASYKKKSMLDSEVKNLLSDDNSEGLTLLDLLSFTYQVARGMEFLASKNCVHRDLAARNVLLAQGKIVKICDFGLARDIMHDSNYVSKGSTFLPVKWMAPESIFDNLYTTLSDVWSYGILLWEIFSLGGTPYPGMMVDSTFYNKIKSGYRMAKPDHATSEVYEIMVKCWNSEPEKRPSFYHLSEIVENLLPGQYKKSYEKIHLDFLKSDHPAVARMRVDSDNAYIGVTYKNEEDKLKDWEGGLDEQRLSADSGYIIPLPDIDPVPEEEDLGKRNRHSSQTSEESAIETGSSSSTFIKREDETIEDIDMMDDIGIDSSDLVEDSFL

RIOK2 = biological target: T12, RIOK2 (Homo sapiens, UniProt Q9BVS4)
T12 construct: purchased Eurofins DiscoverX KINOMEscan

LZK = biological target: T13, LZK (Homo sapiens, UniProt O43283)
T13 construct: purchased Eurofins DiscoverX KINOMEscan
T13 sequence (O43283 1-966): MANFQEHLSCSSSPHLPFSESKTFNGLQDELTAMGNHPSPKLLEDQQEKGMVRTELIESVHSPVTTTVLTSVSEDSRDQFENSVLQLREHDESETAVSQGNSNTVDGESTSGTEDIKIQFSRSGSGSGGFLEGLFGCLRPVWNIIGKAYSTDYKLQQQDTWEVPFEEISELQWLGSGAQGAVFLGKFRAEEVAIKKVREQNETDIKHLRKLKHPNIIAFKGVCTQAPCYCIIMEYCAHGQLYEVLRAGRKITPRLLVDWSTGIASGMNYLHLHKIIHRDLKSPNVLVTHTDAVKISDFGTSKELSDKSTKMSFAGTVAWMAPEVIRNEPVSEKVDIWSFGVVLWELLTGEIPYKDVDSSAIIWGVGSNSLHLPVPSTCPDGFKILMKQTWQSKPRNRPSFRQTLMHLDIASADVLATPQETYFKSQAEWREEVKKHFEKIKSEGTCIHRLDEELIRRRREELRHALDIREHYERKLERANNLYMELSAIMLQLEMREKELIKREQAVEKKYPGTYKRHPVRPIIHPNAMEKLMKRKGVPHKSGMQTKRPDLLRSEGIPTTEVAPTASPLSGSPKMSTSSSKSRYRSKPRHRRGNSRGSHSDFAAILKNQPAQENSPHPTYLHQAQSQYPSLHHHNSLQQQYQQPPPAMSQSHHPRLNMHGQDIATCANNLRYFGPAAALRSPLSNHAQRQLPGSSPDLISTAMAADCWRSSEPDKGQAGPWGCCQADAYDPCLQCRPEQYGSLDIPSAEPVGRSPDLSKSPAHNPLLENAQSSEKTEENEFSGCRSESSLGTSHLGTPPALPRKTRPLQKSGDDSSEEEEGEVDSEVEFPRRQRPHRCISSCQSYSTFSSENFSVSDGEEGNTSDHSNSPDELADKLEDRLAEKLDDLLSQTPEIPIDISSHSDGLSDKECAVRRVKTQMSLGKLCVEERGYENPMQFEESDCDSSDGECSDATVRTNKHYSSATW

| Structure (SMILES) | remaining binding at 1 µM (DCAMKL1) [%] | remaining binding at 1 µM (DAPK1) [%] | remaining binding at 1 µM (PKMYT1) [%] | remaining binding at 1 µM (LTK) [%] | remaining binding at 1 µM (STK39) [%] | remaining binding at 1 µM (MARK3) [%] | remaining binding at 1 µM (LRRK2) [%] | remaining binding at 1 µM (KIT(V559D,V654A)) [%] | remaining binding at 1 µM (PIK3CG) [%] | remaining binding at 1 µM (PRKCH) [%] | remaining binding at 1 µM (PDGFRA) [%] | remaining binding at 1 µM (RIOK2) [%] | remaining binding at 1 µM (LZK) [%] |
| --- | --- | --- | --- | --- | --- | --- | --- | --- | --- | --- | --- | --- | --- |
| Clc1cc(NCC2CC2)c2ncc(-c3ccc4[nH]ncc4c3)n2n1 [compound 2, 6-Chloro-N-(cyclopropylmethyl)-3-(1H-indazol-5-yl)imidazo[1,2-b]pyridazin-8-amine] | 99 | 98 | 81 | 100 | 88 | 100 | 94 | 7.8 | 78 | 96 | 12 | 70 | 100 |
| O=C(CN1CCOCC1)N[C@H]1CC[C@H](Nc2cc(Cl)nn3c(-c4ccc5[nH]ncc5c4)cnc23)CC1 [compound 26] | 100 | 66 | 94 | 88 | 89 | 99 | 90 | 0.7 | 100 | 100 | 0.3 | 67 | 100 |
| CN1CCC(CNc2cc(Cl)nn3c(-c4cc5nc(Nc6ccccc6)[nH]c5cc4F)cnc23)CC1 [compound 31, 6-Chloro-3-(6-fluoro-2-(phenylamino)-1H-benzo[d]imidazol-5-yl)-N-((1-methylpiperidin-4-yl)methyl)imidazo[1,2-b]pyridazin-8-amine] | 81 | 99 | 100 | 88 | 98 | 60 | 100 | 27 | 100 | 100 | 94 | 61 | 98 |

Source: paper PMC6437697 (Journal of Medicinal Chemistry, 2019)
